The results in this text go back to PubChem BioAssay AID1645848.

Converted amounts (≈) assume the structure as drawn.

One may read the solubility (kinetic) as solubility judged after dilution from a stock solution rather than from solid.

For this series the following is noted: buffer; pH 7.4; 6.0 h; 150.0 µM.
`CNC(=O)c1ccc(-c2cnc3cnc(C(=O)N(C)c4ccc(Cl)cc4)cn23)cc1` displayed a kinetic solubility of more than 62 µg/mL. To `Cc1ccc(Nc2nc(NCCO)c3ccccc3n2)cc1C.Cl` belongs 28.1 µg/mL; to `CN(C(=O)c1cn2c(-c3ccc(C(F)(F)F)cc3)cnc2cn1)c1ccc(C#N)cc1`, 3.56 µg/mL (≈ 8.46 µM). To `Cc1ccc(S(=O)(=O)Nc2ccccc2C(=O)Nc2ccc(-c3ccccc3)cn2)cc1` belongs less than 1 µg/mL. Turning to `O=C(CNC12CC3CC(CC(C3)C1)C2)c1ccc(Cl)cc1`, the kinetic solubility came to 34.6 µg/mL (≈ 114 µM). To `O=S(=O)(Nc1ccccc1N1CCCCC1)c1ccc(Cl)s1` belongs 3.68 µg/mL (≈ 10.3 µM); to `Cc1ccc(-n2nc3c(=O)n(CCCC(=O)NCc4ccc(F)cc4)nc(C)c3c2C)cc1`, 5.86 µg/mL (≈ 13.1 µM); to `CCc1cccc(CC)c1-n1c(C=C(C)C)c(C(=O)N2CCNCC2)cc(-c2nc(-c3ccc(C(F)(F)F)cc3)cs2)c1=O`, less than 1 µg/mL. `COc1cc(OC)cc(-c2csc(N3CCC(C(N)=O)CC3)n2)c1`: the kinetic solubility was more than 51 µg/mL.

Compound `COc1ccccc1-c1nnc2sc(-c3ccc(N(C)C)cc3)nn12` gave a solubility (kinetic) of 1.04 µg/mL (≈ 2.96 µM). The figure for `N#Cc1ccccc1S(=O)(=O)Nc1cnccc1C(=O)Nc1nc(-c2ccccc2)cs1` is 50.9 µg/mL (≈ 110 µM); for `CCC[C@@H]1CN(C(=O)c2ccc(-c3ccc(C)o3)cc2)C[C@H]1NC(C)=O` it is more than 52 µg/mL; for `COc1cc(-c2ccnc3c2c(C)nn3-c2ccc(C(F)(F)F)cc2)ccc1O` it is 28.1 µg/mL (≈ 70.4 µM). As for `Cc1nn(CC(=O)NCCCN2CCC(N3CCCCC3)CC2)c(=O)c2cc(-c3ccccc3)nn12`, the solubility (kinetic) is more than 73 µg/mL. The compound `COc1ccc(C(=O)Nc2nc(-c3ccccc3)cs2)c(NS(=O)(=O)c2ccc(C)cc2)c1` yielded a kinetic solubility of less than 1 µg/mL. To `CC(=O)N1CCN(c2nc(-c3ccc(Br)cc3)cs2)CC1` belongs less than 1 µg/mL.

For the compound `CC[C@H](C)[C@@H]([C@@H](CC(=O)N1CCC[C@H]1[C@H](OC)[C@@H](C)C(=O)N[C@@H](Cc1ccccc1)c1nccs1)OC)N(C)C(=O)[C@@H](NC(=O)[C@H](C(C)C)N(C)C)C(C)C`, the kinetic solubility was determined as 65.7 µg/mL (≈ 83.7 µM).

`O=C(Nc1ccc(Nc2ccncc2)cc1)c1ccc(Nc2ccnc3ccc([N+](=O)[O-])cc23)cc1[N+](=O)[O-]` had a solubility (kinetic) of less than 1 µg/mL. To `Cc1cc(Oc2ccc(N)cn2)ccc1Cl` belongs more than 35 µg/mL. The compound `COc1ccc(O)c(CNc2ccc(S(=O)(=O)Nc3nccs3)cc2)c1` showed a kinetic solubility of more than 58 µg/mL.

`c1ccc(-c2nc(N3CCCCCC3)c3ccccc3n2)nc1` came in with a solubility (kinetic) of more than 45 µg/mL. The figure for `Oc1ccc(Nc2nc(-c3ccncc3)nc3ccccc23)cc1F` is less than 1 µg/mL. The figure for `COc1ccccc1C(=O)Nc1nnc(SCc2cc(=O)c3ccccc3[nH]2)s1` is less than 1 µg/mL; for `Cc1cnc(-c2ccccc2C(F)F)nc1NCc1ccc(-n2ccnn2)cc1` it is less than 1 µg/mL.

As to `O=C(NCCCn1ccnc1)c1ccc(-c2ncc3cnc(-c4cccc(F)c4)cn23)cc1`, the kinetic solubility stood at 32.5 µg/mL (≈ 73.9 µM). The figure for `Cc1ccccc1C(=O)N1CCc2cc(-c3nc(NC(=O)Cc4ccc5c(c4)OCCO5)sc3C)ccc21` is less than 1 µg/mL. Regarding `CC(=O)Nc1ccc(NC(=O)C(NS(=O)(=O)c2ccc(Br)s2)c2ccccc2)cc1` (stereo unspecified), the kinetic solubility was less than 1 µg/mL. On to `O=C(Cc1ccc2ccccc2c1)Nc1ccc(S(=O)(=O)Nc2nccs2)cc1`, for which the solubility (kinetic) stood at 0.228 µg/mL (≈ 0.538 µM). As to `COc1ccccc1OCCNCC(O)COc1cccc2[nH]c3ccccc3c12` (stereo unspecified), the kinetic solubility is more than 60 µg/mL. Take `COC(=O)[C@H](NC(=O)c1cc(-c2ccccc2)nc2ccccc12)c1ccccc1`: the solubility (kinetic) was less than 1 µg/mL. The compound `Cc1nn2c(c1-c1ccccc1-c1ccccc1)N(Cc1ccccc1)CCC2` returned a solubility (kinetic) of 4.07 µg/mL (≈ 10.7 µM).

On to `COc1cccc(C(=O)NCCSc2c(-c3ccc(F)cc3)[nH]c3ccccc23)c1OC`, for which the solubility (kinetic) is less than 1 µg/mL. `CC(C)N(CCC(=O)c1ccc2ccccc2c1)Cc1ccccc1`: the kinetic solubility came out at 13.4 µg/mL (≈ 40.3 µM). To `O=C(Nc1ncnc2sc3c(c12)CCCCC3)c1ccco1` belongs 1.72 µg/mL (≈ 5.49 µM); to `COc1ccc(CN2CCNc3cc(Nc4ccccc4)ncc3C2)cc1O`, more than 83 µg/mL; to `CS(=O)(=O)c1ccc(-c2csc(N3CCC(C(N)=O)CC3)n2)cc1`, 7.22 µg/mL (≈ 19.8 µM). As for `CN(C)c1cccc(-c2ncnc(N3CCC(C(N)=O)CC3)n2)c1`, the solubility (kinetic) was more than 48 µg/mL. To `O=C(Nc1ncc(Cc2ccccc2)s1)c1ccc(-c2cccc([N+](=O)[O-])c2)o1` belongs less than 1 µg/mL. Regarding `CNc1nc(C#N)c(-c2cccc3ccccc23)o1`, the solubility (kinetic) was less than 1 µg/mL. As to `Fc1ccc(-c2ccc(Nc3nc(-c4ccncc4)nc4ccccc34)cc2F)c(Cl)c1`, the solubility (kinetic) is less than 1 µg/mL.

Take `C[S+](=O)([O-])N1CCC(Cn2ccc3c(N4CCOCC4)nc(-c4cccc5[nH]ccc45)cc32)CC1`: the solubility (kinetic) is less than 1 µg/mL. Turning to `CC1(C)CCC(c2ccc(Cl)cc2)=C(CN2CCN(c3ccc(C(=O)NS(=O)(=O)c4ccc(N[C@H](CCN5CCOCC5)CSc5ccccc5)c(S(=O)(=O)C(F)(F)F)c4)cc3)CC2)C1`, the kinetic solubility was less than 1 µg/mL. The figure for `COC(=O)C1=C(C)NC(=O)CC1C(=O)Nc1ccc(Cl)cc1` (stereo unspecified) is 31.2 µg/mL (≈ 96.8 µM).

With `CC(=O)NC(c1cccs1)c1cc(Br)c2cccnc2c1O` (stereo unspecified), the solubility (kinetic) is less than 1 µg/mL. To `Cc1ccc(C(=O)Nc2ccc3oc(-c4cccnc4)nc3c2)cc1[N+](=O)[O-]` belongs less than 1 µg/mL; to `CCOC(=O)c1ccc(-n2c(C)cc(-c3nnc4n3CCCCC4)c2C)cc1`, more than 56 µg/mL. The figure for `CCCN1C(CC(C)C)=NS(=O)(=O)c2cc(NC(=O)c3cccs3)ccc21` is less than 1 µg/mL; for `Cc1noc(C)c1-c1csc(N2CCC(C(N)=O)CC2)n1` it is more than 45 µg/mL. With `COc1ccc(OC)c(CNc2ncnc3onc(C)c23)c1`, the kinetic solubility was more than 44 µg/mL. The compound `COc1ccc(NC(=O)c2c(C)cccc2C)cc1[S+](=O)([O-])N1CCCCC1` registered a kinetic solubility of 38.8 µg/mL (≈ 96.3 µM). `Nc1nc2c(s1)C(c1ccc(F)cc1F)CC(=O)N2` (stereo unspecified) registered a kinetic solubility of 23.2 µg/mL (≈ 82.4 µM). To `O=c1n(-c2ccc(Cl)cc2)nc2n1CCN(Cc1ccc(C(F)(F)F)cc1)C2` belongs less than 1 µg/mL.

As to `CCc1oc2ccccc2c1C(=O)c1cc(Br)c(O)c(Br)c1`, the solubility (kinetic) was more than 62 µg/mL. For the compound `Fc1ccccc1-c1ccc(Nc2nc(-c3ccncc3)nc3ccccc23)cc1F`, the kinetic solubility is less than 1 µg/mL. `C/C=C1/CN2CC[C@@]34c5ccccc5N(C)[C@@H]3[C@@H]2C[C@@H]1[C@H]4C(=O)OC` returned a solubility (kinetic) of more than 33 µg/mL. To `CC1=NN(c2ccc(C(=O)O)cc2)C(=O)/C1=C/c1ccc(-c2cc(C)c(C)cc2[N+](=O)[O-])o1` belongs 1.01 µg/mL (≈ 2.26 µM); to `O=C(Nc1ccccc1)C1CCN(c2ncc(-c3ccc4c(c3)OCCCO4)s2)CC1`, less than 1 µg/mL; to `Cc1ccccc1NC(=O)Nc1cccs1`, more than 34 µg/mL. The figure for `CC(C)Nc1oc(-c2cccc3ccccc23)nc1C#N` is less than 1 µg/mL; for `CCOC(=O)c1nnc(N[S+](=O)([O-])c2ccc(NC(=O)Cc3ccc(Cl)c(Cl)c3)cc2)s1` it is more than 76 µg/mL; for `FC(F)(F)c1cccc(N2CCN(C(=S)Nc3cc4ccccc4cn3)CC2)c1` it is less than 1 µg/mL. `O=C(O)CCNc1cc(N2CCc3ccccc3CC2)nc(-c2cccnc2)n1` yielded a solubility (kinetic) of more than 58 µg/mL. To `Cc1cc(S(=O)(=O)Nc2cnccc2C(=O)Nc2nc(-c3ccccc3)cs2)c(C)o1` belongs more than 67 µg/mL. For the compound `CCOc1ccc(NC(=O)CSC2=Nc3ccccc3C3=NC(CC(=O)NCc4cccs4)C(=O)N23)cc1` (stereo unspecified), the kinetic solubility turned out to be 23.8 µg/mL (≈ 43.4 µM). To `CCOC(=O)c1nc(Nc2ccc(N3CCC(C)CC3)cc2)c2ccccc2n1` belongs 2.18 µg/mL (≈ 5.59 µM); to `N#Cc1ccc(C(=O)Nc2ccc(Cl)c(-c3nc4cc(Cl)ccc4o3)c2)c(F)c1`, less than 1 µg/mL; to `CCCCOc1ccccc1C(=O)Nc1ccccc1C(=O)Nc1cccc(S(=O)(=O)C(F)(F)F)c1`, less than 1 µg/mL. To `CC1=C(C(=O)Nc2nncs2)C(c2[nH]ncc2Cl)N=C(Nc2nc3ccccc3o2)N1` (stereo unspecified) belongs 34.6 µg/mL (≈ 75.8 µM); to `COc1cccc(-c2noc(Nc3ccc4c(c3)OCCO4)n2)c1`, less than 1 µg/mL. On to `Cc1noc(C)c1-c1ccc2ncnc(NC(C)c3ccccc3)c2c1` (stereo unspecified), for which the kinetic solubility was determined as 12.6 µg/mL (≈ 36.7 µM).

`C=C1c2cccc(O)c2C(O)=C2C(=O)[C@]3(O)C(O)=C(C(N)=O)C(=O)[C@@H](N(C)C)[C@@H]3[C@@H](O)[C@H]12` returned a solubility (kinetic) of more than 65 µg/mL. To `C[C@H]1CN(C(=O)c2nn(C)c3ccccc23)C[C@@H]1c1nc(-c2cccnc2)no1` belongs 19.7 µg/mL (≈ 50.6 µM); to `Fc1cccc(F)c1Nc1nc(-c2ccncc2)nc2ccccc12`, less than 1 µg/mL. To `Cc1ccnc(NC(=S)N2CCN(c3cccc(C(F)(F)F)n3)CC2)c1` belongs 3.88 µg/mL (≈ 10.2 µM); to `Cc1ccc(S(=O)(=O)Nc2cc3c(cc2C(=O)Nc2nc(-c4ccccc4)cs2)OCO3)cc1`, less than 1 µg/mL; to `O=C(Nc1ccccc1C(=O)Nc1ccccc1C(=O)NCc1ccco1)c1ccco1`, 4.45 µg/mL (≈ 10.4 µM). `COc1ccc(S(=O)(=O)N2CCOCC2)cc1NC(=O)c1cccc(-n2cccc2)c1` gave a kinetic solubility of 6.13 µg/mL (≈ 13.9 µM). `COc1cccc2c1CCCC2CCCN1CCN(C2CCCCC2)CC1` (stereo unspecified) yielded a solubility (kinetic) of more than 55 µg/mL. The figure for `CC1Oc2cc3c(-c4c(O)cc(O)c5c(O)c6c(cc45)OC(C)C(C)C6=O)c(O)cc(O)c3c(O)c2C(=O)C1C` (stereo unspecified) is 53.5 µg/mL (≈ 97.8 µM); for `COc1ccc(-c2cc3nccn3c(Nc3ncccc3C(N)=O)n2)cc1OC` it is 24.2 µg/mL (≈ 62.1 µM).

With `Cc1cc2c(-c3cccc(O)c3)nc(-c3c(C)noc3C)cc2[nH]1`, the solubility (kinetic) was less than 1 µg/mL. To `O=C(Cc1n[nH]c(=O)c2ccccc12)NC1CCCc2c1[nH]c1c(Cl)cccc21` (stereo unspecified) belongs less than 1 µg/mL; to `O=S(=O)(Nc1nccs1)c1ccc(NCc2ccc(Cl)cc2O)cc1`, 1.32 µg/mL (≈ 3.34 µM). In the case of `Fc1cnc(-c2ccccc2C(F)F)nc1NCc1ccc(-c2cccnc2)cc1`, the kinetic solubility is less than 1 µg/mL.

In the case of `O=C1CCCC2=C1C(c1ccccc1Br)N=C(Nc1nc3ccccc3o1)N2` (stereo unspecified), the solubility (kinetic) was less than 1 µg/mL. The compound `C1CCc2nc3c(nc2C1)CCCC3` returned a solubility (kinetic) of more than 28 µg/mL.
